Where two headings read alike, the source gives them in different places.
Target: T1, recombinant human Meningioma Expressed Antigen 5 (MGEA5), also referred to as O-GlcNAcase (OGA) (Homo sapiens, UniProt O60502)
T1 construct: Full length OGA enzyme was purchased at OriGene (cat # TP322411); purchased OriGene TP322411
T1 sequence (O60502 1-916): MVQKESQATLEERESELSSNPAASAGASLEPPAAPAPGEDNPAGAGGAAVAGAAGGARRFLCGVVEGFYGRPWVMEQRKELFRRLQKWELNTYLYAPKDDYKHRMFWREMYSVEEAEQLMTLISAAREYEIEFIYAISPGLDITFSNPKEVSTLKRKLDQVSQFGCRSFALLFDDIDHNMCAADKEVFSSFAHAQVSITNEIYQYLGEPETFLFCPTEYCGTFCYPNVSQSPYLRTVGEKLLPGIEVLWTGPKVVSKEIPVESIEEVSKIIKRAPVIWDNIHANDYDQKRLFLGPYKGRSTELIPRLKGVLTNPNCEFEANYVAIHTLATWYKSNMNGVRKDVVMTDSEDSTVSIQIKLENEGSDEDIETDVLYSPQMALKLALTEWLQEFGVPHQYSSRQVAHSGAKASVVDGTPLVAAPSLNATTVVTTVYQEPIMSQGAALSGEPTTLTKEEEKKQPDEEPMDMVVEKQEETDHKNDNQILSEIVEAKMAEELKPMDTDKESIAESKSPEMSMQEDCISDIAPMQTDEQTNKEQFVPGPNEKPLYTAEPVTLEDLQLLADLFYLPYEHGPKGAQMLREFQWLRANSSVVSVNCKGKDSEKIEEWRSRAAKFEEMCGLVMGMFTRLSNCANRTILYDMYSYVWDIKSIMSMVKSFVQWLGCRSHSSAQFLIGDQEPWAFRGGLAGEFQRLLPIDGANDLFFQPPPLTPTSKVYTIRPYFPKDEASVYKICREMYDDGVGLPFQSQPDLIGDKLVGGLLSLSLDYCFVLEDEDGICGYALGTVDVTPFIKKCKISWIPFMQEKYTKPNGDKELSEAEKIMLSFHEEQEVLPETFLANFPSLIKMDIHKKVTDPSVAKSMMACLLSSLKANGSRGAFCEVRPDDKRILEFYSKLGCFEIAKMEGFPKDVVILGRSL
Assay: OGA biochemical assay: inhibition of FM-GlcNAc hydrolysis, fluorescence (protocol A 10 nM OGA, 1 h; protocol B 2 nM OGA, 6 h)
Source text: The assay is based on the inhibition of the hydrolysis of fluorescein mono-B-D-N-Acetyl-Glucosamine (FM-GlcNAc) (Mariappa et al. 2015, Biochem J 470:255) by the recombinant human Meningioma Expressed Antigen 5 (MGEA5), also referred to as 0-GlcNAcase (OGA). The hydrolysis FM-GlcNAc (Marker Gene technologies, cat # M1485) results in the formation of β-D-N-glucosamineacetate and fluorescein. The fluorescence of the latter can be measured at excitation wavelength 485 nm and emission wavelength 538 nm. An increase in enzyme activity results in an increase in fluorescence signal. Full length OGA enzyme was purchased at OriGene (cat # TP322411). The enzyme was stored in 25 mM Tris.HCl, pH 7.3, 100 mM glycine, 10% glycerol at −20° C. Thiamet G and GlcNAcStatin were tested as reference compounds (Yuzwa et al. 2008 Nature Chemical Biology 4:483; Yuzwa et al. 2012 Nature Chemical Biology 8:393). The assay was performed in 200 mM Citrate/phosphate buffer supplemented with 0.005% Tween-20. 35.6 g Na2HPO4 2 H2O (Sigma, # C0759) were dissolved in 1 L water to obtain a 200 mM solution. 19.2 g citric acid (Merck, #1.06580) was dissolved in 1 L water to obtain a 100 mM solution. pH of the sodiumphosphate solution was adjusted with the citric acid solution to 7.2. The buffer to stop the reaction consists of a 500 mM Carbonate buffer, pH 11.0. 734 mg FM-GlcNAc were dissolved in 5.48 mL DMSO to obtain a 250 mM solution and was stored at −20° C. OGA was used at a 10 nM (protocol A) or 2 nM (protocol B) concentration and FM-GlcNAc at a 100 uM final concentration. Dilutions were prepared in assay buffer.
50 nl of a compound dissolved in DMSO was dispensed on Black Proxiplate™ 384 Plus Assay plates (Perkin Elmer, #6008269) and 3 μl fl-OGA enzyme mix added subsequently. Plates were pre-incubated for 60 min at room temperature and then 2 μl FM-GlcNAc substrate mix added. […] Plates were briefly centrifuged for 1 min at 1000 rpm and incubate at room temperature for 1 h (10 nM OGA, protocol A) or 6 h (2 nM OGA, protocol B). To stop the reaction 5 μl STOP buffer were added and plates centrifuge again 1 min at 1000 rpm. Fluorescence was quantified in the Thermo Scientific Fluoroskan Ascent or the PerkinElmer EnVision with excitation wavelength 485 nm and emission wavelength 538 nm.
For analysis a best-fit curve is fitted by a minimum sum of squares method. From this an IC50 value and Hill coefficient was obtained. High control (no inhibitor) and low control (saturating concentrations of standard inhibitor) were used to define the minimum and maximum values.

[1] = Enzymatic protocol B (2 nM OGA, 6 h), read-out: Enzymatic Emax (%)
[2] = Enzymatic protocol B (2 nM OGA, 6 h), read-out: Enzymatic hOGA, pIC50 (converted)
[3] = Enzymatic protocol A (10 nM OGA, 1 h), read-out: Enzymatic hOGA, pIC50 (converted)
[4] = Enzymatic protocol B (2 nM OGA, 6 h)
[5] = Enzymatic protocol A (10 nM OGA, 1 h), read-out: Enzymatic Emax (%)
[6] = comparative table, protocol not given, read-out: Emax (OGA inhibitory activity, comparison with 1,4-disubstituted piperidine comparator)
[7] = comparative table, protocol not given, read-out: pIC50 (OGA inhibitory activity, comparison with 1,4-disubstituted piperidine comparator) (converted)

Emax [1] [%]	IC50 [2] [nM]	Enzymatic Emax (%) [4] [%]	SMILES	also measured
99	83.2	–	CC(c1ccc2c(c1)OCO2)N1CCCC(c2cc3ncccc3n2C)C1 (racemic) [Compound 44]	–
–	> 10000	46.5	Cn1c(C2CCCN(Cc3ccc4nccnc4c3)C2)cc2ncccc21 (single isomer, unassigned) [Compound 43]	–
–	27.5	100	CC(c1ccc2c(c1)OCO2)N1CCCC(c2cc3ncccc3n2C)C1 (single isomer, unassigned) [Compound 45]	–
–	> 10000	24.2	CC(c1ccc2c(c1)OCO2)N1CCCC(c2cc3ncccc3n2C)C1 (single isomer, unassigned) [Compound 46]	–
–	1550	85.8	CC(c1ccc2c(c1)OCO2)N1CCCC(c2cc3ncccc3n2C)C1 (single isomer, unassigned) [Compound 47]	–
–	> 10000	31.7	CC(c1ccc2c(c1)OCO2)N1CCCC(c2cc3ncccc3n2C)C1 (single isomer, unassigned) [Compound 48]	–
52.3	8710	–	Cn1c(C2CCCN(Cc3cc4c(cn3)OCCO4)C2)cc2ncccc21 (centres unmarked) [Compound 50]	–
56.7	7760	–	Cn1c(C2CCCN(Cc3ccc4ccccc4n3)C2)cc2ncccc21 (centres unmarked) [Compound 51]	–
72.2	3980	–	Cn1c(C2CCCN(Cc3ccc4nsnc4c3)C2)cc2ncccc21 (centres unmarked) [Compound 52]	–
97.2	832	–	Cn1c(C2CCCN(Cc3ccc4scnc4c3)C2)cc2ncccc21 (centres unmarked) [Compound 53]	–
69.1	4070	–	Cn1c(CN2CCCC(c3cc4ncccc4n3C)C2)cc2ccccc21 (centres unmarked) [Compound 54]	–
81.5	2190	–	Cn1c(C2CCCN(Cc3cnc4c(c3)OCCO4)C2)cc2ncccc21 (centres unmarked) [Compound 55]	–
98	832	–	Cn1c(C2CCCN(Cc3nc4ccccc4n3C)C2)cc2ncccc21 (centres unmarked) [Compound 56]	–
60.8	6610	–	CC(=O)Nc1ncc(CN2CCNC(c3cc4ncccc4[nH]3)C2)s1 (centres unmarked) [Compound 57]	–
23.9	> 10000	–	Cn1c(C2CCCN(Cc3ccc4cccnc4c3)C2)cc2ncccc21 (centres unmarked) [Compound 63]	–
100	7.76	–	CC(=O)Nc1ncc(CN2CCCC(Cn3ccc4ncccc43)C2)s1 (centres unmarked) [Compound 64]	–

Second part, the compound before the results:

SMILES	Emax [1] [%]	IC50 [2] [nM]	Enzymatic Emax (%) [4] [%]	also measured
CC(=O)Nc1ncc(S(=O)(=O)N2CCCC(c3cc4ncccc4[nH]3)C2)s1 (single isomer, unassigned) [Compound 3]	–	–	–	Enzymatic Emax (%) (Enzymatic protocol A (10 nM OGA, 1 h)): 99%; IC50 [3]: 562 nM
CC(=O)Nc1ncc(CN2CCCC(c3cc4cnccc4[nH]3)C2)s1 (single isomer, unassigned) [Compound 13]	98.9	22.9	–	–
CC(=O)Nc1ncc(CN2CCCC(c3cc4cnccc4[nH]3)C2)s1 (single isomer, unassigned) [Compound 14]	–	676	96.3	–
CC(c1ccc2c(c1)OCO2)N1CCCC(c2cc3ncccc3[nH]2)C1 (single isomer, unassigned) [Compound 29]	–	3720	73.5	–
CC(c1ccc2c(c1)OCO2)N1CCCC(c2cc3ncccc3[nH]2)C1 (single isomer, unassigned) [Compound 30]	–	4070	75.1	–
CC(c1ccc2c(c1)OCO2)N1CCCC(c2cc3ncccc3[nH]2)C1 (single isomer, unassigned) [Compound 32]	–	1780	89.4	–
CC(c1ccc2c(c1)OCCO2)N1CCCC(c2cc3ncccc3[nH]2)C1 (single isomer, unassigned) [Compound 34]	93.8	708	–	–
CC(c1ccc2c(c1)OCCO2)N1CCCC(c2cc3ncccc3[nH]2)C1 (single isomer, unassigned) [Compound 35]	–	2450	87.7	–
CC(c1ccc2c(c1)OCCO2)N1CCCC(c2cc3ncccc3[nH]2)C1 (single isomer, unassigned) [Compound 36]	–	11	101.3	–
CC(c1ccc2c(c1)OCCO2)N1CCCC(c2cc3ncccc3[nH]2)C1 (single isomer, unassigned) [Compound 37]	–	955	96.0	–
Cn1c(C2CCCN(Cc3ccc4nccnc4c3)C2)cc2ncccc21 (single isomer, unassigned) [Compound 42]	–	776	93.2	–
CC(=O)Nc1ncc(S(=O)(=O)N2CCCC(c3nc4ncccc4[nH]3)C2)s1 (centres unmarked) [Compound 1]	–	–	–	Emax [5]: 75.9%; IC50 [3]: 1860 nM
CC(=O)Nc1ncc(CN2CCCC(c3cc4ncccc4[nH]3)C2)s1 (centres unmarked) [Compound 5]	–	–	–	Emax [5]: 99.7%; IC50 [3]: 25.7 nM; Emax [6]: 99.7%; IC50 [7]: 25.7 nM; OGA inhibitory activity compared with comparator (greater than the corresponding 1,4-disubstituted piperidine compound (comparator)): ~1 order of magnitude
CC(=O)N(C)c1ncc(CN2CCCC(c3cc4ncccc4[nH]3)C2)s1 (centres unmarked) [Compound 10]	90.1	1020	–	–
CC(=O)Nc1ncc(CN2CCOC(c3cc4ncccc4[nH]3)C2)s1 (centres unmarked) [Compound 27]	77.3	3160	–	–
c1cnc2cc(C3CCCN(Cc4ccc5c(c4)OCO5)C3)[nH]c2c1 (centres unmarked) [Compound 38]	–	–	–	Emax [5]: 99.9%; IC50 [3]: 1740 nM
Cn1c(C2CCCN(Cc3ccc4nccnc4c3)C2)cc2ncccc21 (centres unmarked) [Compound 41]	89.8	1260	–	–
CC(=O)Nc1ncc(CN2CCC(c3cc4ncccc4[nH]3)CC2)s1 [comparator, reference compound]	–	–	–	Emax [6]: 103%; IC50 [7]: 224 nM
